Columns and labels:
[1] = system: Lolium spp. resistant to HRAC group A; assay: Greenhouse trial, post-emergence action against resistant ryegrass biotype (HRAC group A); assay type: in vivo; conditions: post-emergence (PO, BBCH 11), about 3 weeks after application
Experimental: (§1) In the standard design of the test, seeds of various broad-leaved weed and weed grass biotypes (origins) were sown in a 8-13 cm diameter pot filled with natural soil of a standard field soil (loamy silt; non-sterile) and covered with a covering soil layer of about 1 cm. The pots were then cultivated in a greenhouse (12-16 h light, temperature day 20-22° C., night 15-18° C.) until the time of application. The pots were treated on a laboratory track sprayer with spray liquors comprising the compositions according to the invention, mixtures of the prior art or components used individually. Application of the active compounds or active compound combinations formulated as WG, WP, EC or otherwise was carried out at the appropriate growth stages of the plants. The amount of water used for spray application was 100-600 l/ha. After the treatment, the plants were returned to the greenhouses.
(§2) About 3 weeks after the application, the soil action or/and foliar action was assessed visually according to a scale of 0-100% in comparison to an untreated comparative group: 0%=no noticable effect compared to the untreated comparative group; 100%=full effect compared to the untreated comparative group.
(§3) (Notes: the term “seeds” also includes vegetative propagation forms such as, for example, rhizome pieces; abbreviations used: h light=hours of illumination, g of AS/ha=grams of active substance per hectare, l/ha=liter per hectare, S=sensitive, R=resistant) • 1. Pre-emergence action against weeds: seeds of various broad-leaved weed and weed grass biotypes (origins) were sown in a 8-13 cm diameter pot filled with natural soil of a standard field soil (loamy silt; non-sterile) and covered with a covering soil layer of about 1 cm. The pots were then cultivated in a greenhouse (12-16 h light, temperature day 20-22° C., night 15-18° C.) until the time of application. […]

[2] = system: Lolium spp. resistant to HRAC group B; assay: Greenhouse trial, post-emergence action against resistant ryegrass biotype (HRAC group B); assay type: in vivo; conditions: post-emergence (PO, BBCH 11), about 3 weeks after application
Experimental: as §1, §2, §3

**Q.** What does the source list for `Cn1nc(C(F)(F)F)c(CS(=O)(=O)C2=NOC(C)(C)C2)c1OC(F)F` [(B) pyroxasulfone, 3-[[[5-(difluoromethoxy)-1-methyl-3-(trifluoromethyl)-1H-pyrazol-4-yl]methyl]sulfonyl]-4,5-dihydro-5,5-dimethylisoxazole]?
**A.** effect (visual scale 0-100% vs untreated) ([1]; 13 g of AS/ha): 45%; effect (visual scale 0-100% vs untreated) ([2]; 13 g of AS/ha): 70%

**Q.** How did the “effect (visual scale 0-100% vs untreated)” value ([1]; 25 g of AS/ha) turn out when `O=C(Nc1ccc(F)cc1)c1cccc(Oc2cccc(C(F)(F)F)c2)n1` [(C) picolinafen, N-(4-fluorophenyl)-6-[3-(trifluoromethyl)phenoxy]-2-pyridinecarboxamide] was run?
**A.** Its value is 10%.

**Q.** What about the “effect (visual scale 0-100% vs untreated)” value ([2]; 25 g of AS/ha) of the same molecule?
**A.** Its value is 5%.

**Q.** Which “effect (visual scale 0-100% vs untreated)” value ([1]; 225 g of AS/ha) does the source give for `Nc1c([N+](=O)[O-])ccc(Oc2ccccc2)c1Cl` [(A) aclonifen, 2-chloro-6-nitro-3-phenoxybenzenamine] here?
**A.** Its value is 25%.

**Q.** And the “effect (visual scale 0-100% vs untreated)” value ([2]; 225 g of AS/ha)?
**A.** The value was 50%.

From US9357773B2, “Herbicidal agents containing aclonifen” (BAYER CROPSCIENCE AKTIENGESELLSCHAFT, priority 2012, dated 2016)
